Results published in PMC9030691, “Toxicokinetics of β-Amanitin in Mice and In Vitro Drug–Drug Interaction Potential” (Pharmaceutics, 2022).
“And” between values parts separate entries of the source, which are not always exact repeats. Identical values can stand only once. Like-named read-outs stand apart in the source and are kept apart here.

What was measured:
[1] = Toxicokinetics after intravenous injection in mice; type: in vivo; conditions: male ICR mice; for MRT / Vd / clearance / half-life / AUC(0-inf) / AUC(0-t) / C0: mouse, mean ± SD; for MRT: AUMC/AUC; for Vd: CLxMRT, read-out: Vss; for clearance: Dose/AUC; for half-life: plasma elimination half-life; for AUC(0-inf) / AUC(0-t) / C0: LC-HRMS, non-compartmental
Method: The Institutional Animal Care and Use Committee of the Catholic University of Korea (approval number, CUK-IACUC-2021-004; approval date, 21 March 2021) approved the study protocol. Male ICR mice (8 weeks of age, 27.4 ± 2.3 g) were purchased from Orient Bio Inc. (Seongnam, Korea). Mice were kept in plastic cages with unlimited access to a standard mouse diet (Orient Bio) and water before the experiments. For oral administration, mice were fasted for at least 12 h but allowed free access to water.
β-amanitin was dissolved in water and administered by iv bolus injection into the tail vein of mice at doses of 0.2 (n = 8), 0.4 (n = 6), and 0.8 (n = 7) mg/kg. Blood samples (approximately 15 μL) were collected from the retro-orbital plexus under light anesthesia with isoflurane at 0.033, 0.083, 0.25, 0.5, 0.75, 1, 1.5, 2, 3, 4, 6, and 8 h after drug administration.
Concentrations of β-amanitin in biological samples were evaluated following our previous methodology. The standard calibration curves for β-amanitin in mouse plasma ranged from 0.5 to 500 ng/mL and were linear, with a correlation coefficient of 0.9952. The inter- and intra-day accuracy and precision fell within the acceptance criteria (3.1–14.6% of coefficients of variation (CVs) and 92.5–115.0% of accuracy). The extraction recovery and matrix effect of this analytical method were 82.8–88.9% and 93.0–98.6%.
An aliquot (5 μL) of plasma sample was mixed with 15 μL of 4′-hydroxydiclofenac (internal standard (IS), 5 ng/mL) in methanol and vortexed for 2 min. The mixture was centrifuged at 13,000× g at 4 °C for 5 min, and the supernatant was then transferred to an autosampler vial. An aliquot (5 μL) was injected into the LC-HRMS system for analysis.
The toxicokinetic parameters of β-amanitin were analyzed by non-compartmental analyses (WinNonlin, Pharsight; Mountain View, CA, USA) (Table 1). Data were expressed as mean ± standard deviations (SD). Comparisons of data between groups were performed using one-way ANOVA or Student t-test. Values of p < 0.05 were considered statistically significant.

[2] = target: T1, CYP2C19 (Homo sapiens, UniProt P33261); assay: CYP2C19 inhibition in human liver microsomes; type: in vitro ADME; conditions: ultrapooled human liver microsomes 0.2 mg/mL, 100 μM [S]-mephenytoin, β-amanitin 0.1–100 μM, pH 7.4, 37 °C, 15 min, LC-MS/MS, n = 3, read-out: IC50, CYP2C19 [S]-mephenytoin 4′-hydroxylase
T1 construct: from tissue; host or cells: ultrapooled human liver microsomes
Method: β-amanitin inhibition (IC50 values) of CYP1A2, CYP2A6, CYP2B6, CYP2C8, CYP2C9, CYP2C19, CYP2D6, and CYP3A4 enzyme activities in HLMs were evaluated using LC-MS/MS and CYP substrates as previously described. Each incubation mixture was made up to a volume of 100 μL including HLMs (0.2 mg/mL), 50 mM potassium phosphate buffer (pH 7.4), 1.0 mM NADPH, 10 mM magnesium chloride, various concentrations of β-amanitin (0.1–100 μM), a cocktail of seven CYP probe substrates (50 μM phenacetin for CYP1A2, 2.5 μM coumarin for CYP2A6, 2 μM amodiaquine for CYP2C8, 10 μM diclofenac for CYP2C9, 100 μM [S]-mephenytoin for CYP2C19, 5 μM bufuralol for CYP2D6, and 2.5 μM midazolam for CYP3A4 in acetonitrile), or 50 μM bupropion for CYP2B6. The reactions were initiated with NADPH followed by incubation in a shaking water bath at 37 °C for 15 min with or without 30 min preincubation with NADPH. Reactions were stopped with 50 μL of ice-cold methanol containing ^13C2, ^15N-acetaminophen and d9-1′-hydroxybufuralol (ISs). Incubation mixtures were centrifuged at 13,000× g for 8 min at 4 °C. An aliquot (5 μL) of the supernatant from the reaction mixture was analyzed by the previous LC-MS/MS method.

[3] = plasma, iv bolus 0.2 mg/kg, n = 8
[4] = plasma, iv bolus 0.4 mg/kg, n = 6
[5] = plasma, iv bolus 0.8 mg/kg, n = 7
[6] = iv bolus 0.2 mg/kg, plasma, n = 8
[7] = iv bolus 0.4 mg/kg, plasma, n = 6
[8] = iv bolus 0.8 mg/kg, plasma, n = 7

T1 sequence (P33261 whole entry): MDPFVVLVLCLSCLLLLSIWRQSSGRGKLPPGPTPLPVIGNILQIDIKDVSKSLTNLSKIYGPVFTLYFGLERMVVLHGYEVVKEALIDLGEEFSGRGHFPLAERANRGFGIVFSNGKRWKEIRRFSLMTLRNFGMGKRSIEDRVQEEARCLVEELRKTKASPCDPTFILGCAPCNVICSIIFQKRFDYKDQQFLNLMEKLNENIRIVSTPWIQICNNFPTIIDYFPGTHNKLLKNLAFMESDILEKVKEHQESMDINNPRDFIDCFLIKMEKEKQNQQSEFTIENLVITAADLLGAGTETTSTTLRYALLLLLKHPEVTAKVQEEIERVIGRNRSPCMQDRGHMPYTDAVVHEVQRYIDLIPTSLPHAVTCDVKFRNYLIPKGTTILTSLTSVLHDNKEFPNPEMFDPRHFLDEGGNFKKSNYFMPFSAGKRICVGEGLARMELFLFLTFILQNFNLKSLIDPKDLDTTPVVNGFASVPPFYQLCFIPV

In the case of `CC[C@H](C)[C@@H]1NC(=O)CNC(=O)[C@@H]2Cc3c([nH]c4cc(O)ccc34)[S@+]([O-])C[C@H](NC(=O)CNC1=O)C(=O)N[C@@H](CC(=O)O)C(=O)N1C[C@H](O)C[C@H]1C(=O)N[C@@H]([C@@H](C)[C@@H](O)CO)C(=O)N2` [β-amanitin], the “t1/2, range over the iv doses” value ([1]; iv 0.2, 0.4 and 0.8 mg/kg, plasma, range of the dose-group means) is reported as 18.3–33.6 min and 18.3~33.6 min, the MRT [1, 3] is reported as 22.8 min and the Vd [1, 3] is reported as 0.359 ± 0.0855 L/kg. The clearance [1, 3] was 15.3 ± 2.5 mL/min/kg, the MRT [1, 4] was 22.4 min and the Vd [1, 4] was 0.366 ± 0.061 L/kg. The clearance [1, 4] was 16.2 ± 2.4 mL/min/kg, the MRT [1, 5] was 20.7 min and the Vd [1, 5] was 0.39 ± 0.0771 L/kg. For the same molecule, the clearance [1, 5] was 18.8 ± 6 mL/min/kg, the half-life ([1]; iv bolus 0.2 mg/kg, n = 8) was 21.8 ± 8.3 min and the AUC(0-inf) [1, 6] was 223 ng·h/mL. It also gave an AUC(0-t) [1, 6] of 222 ng·h/mL, a half-life ([1]; iv bolus 0.4 mg/kg, n = 6) of 18.3 ± 3.1 min and an AUC(0-inf) [1, 7] of 421 ng·h/mL. For the same molecule, the AUC(0-t) [1, 7] was 420 ng·h/mL, the half-life ([1]; iv bolus 0.8 mg/kg, n = 7) was 33.6 ± 22.4 min and the AUC(0-inf) [1, 8] was 771 ng·h/mL. The AUC(0-t) [1, 8] was 769 ng·h/mL, the C0 ([1]; iv bolus (tail vein) 0.2 mg/kg in water, plasma, n = 8) was 712 ± 182 ng/mL and the C0 ([1]; iv bolus (tail vein) 0.4 mg/kg in water, plasma, n = 6) was 1440 ± 324 ng/mL. The C0 ([1]; iv bolus (tail vein) 0.8 mg/kg in water, plasma, n = 7) was 3250 ± 904 ng/mL, the IC50 ([2]; with 30 min NADPH preincubation) was greater than 100 µM and the IC50 ([2]; without NADPH preincubation) was greater than 100 µM.
